± gives the expanded uncertainty stated by the source.
Conditions: Crystal; DTA

- Normal melting temperature: 188 ± 1 °C
SMILES: O=C(O)CCC(=O)O [butanedioic acid]

From the NIST ThermoML archive (doi:10.1021/je900021g)
